According to ChEMBL document CHEMBL2331123, “Deuterated clopidogrel analogues as a new generation of antiplatelet agents” (ACS Med Chem Lett, 2013):

What was measured:
Rattus norvegicus [1] = experiment: Inhibition of ADP-induced platelet aggregation in Wistar rat blood at 10 mg/kg, po after 2 hrs by aggregometer analysis relative to vehicle-treated control
Rattus norvegicus [2] = experiment: Inhibition of ADP-induced platelet aggregation in Wistar rat blood at 10 mg/kg, po after 5 mins by aggregometer analysis relative to vehicle-treated control

SMILES | aggregation at 10 mg/kg (Rattus norvegicus [1]) [%] | aggregation at 10 mg/kg (Rattus norvegicus [2]) [%]
[3H]C1([3H])c2ccsc2C([3H])([3H])C([3H])([3H])N1C(C(=O)OC)c1ccccc1Cl (stereo not drawn) | 50.6 | 7
[3H]C1([3H])c2sccc2CN(C(C(=O)OC)c2ccccc2Cl)C1([3H])[3H] (stereo not drawn) | 49.1 | 7.3
COC(=O)C(c1ccccc1Cl)N1CCc2sccc2C1 (stereo not drawn) | 60.4 | 29.4
[3H]C1([3H])c2ccsc2CCN1C(C(=O)OC)c1ccccc1Cl (stereo not drawn) | 50.4 | 12.9
